Patent US7709482B2, “Polycyclic heteroaryl substituted triazoles useful as Axl inhibitors” (Rigel Pharmaceuticals, Inc., priority 2006, dated 2010)
Where two headings read alike, the source gives them in different places.

Biological target: T1, Axl (Homo sapiens, UniProt P30530)
T1 construct: endogenous in cells; host or cells: HeLa cells
T1 sequence (P30530 26-894): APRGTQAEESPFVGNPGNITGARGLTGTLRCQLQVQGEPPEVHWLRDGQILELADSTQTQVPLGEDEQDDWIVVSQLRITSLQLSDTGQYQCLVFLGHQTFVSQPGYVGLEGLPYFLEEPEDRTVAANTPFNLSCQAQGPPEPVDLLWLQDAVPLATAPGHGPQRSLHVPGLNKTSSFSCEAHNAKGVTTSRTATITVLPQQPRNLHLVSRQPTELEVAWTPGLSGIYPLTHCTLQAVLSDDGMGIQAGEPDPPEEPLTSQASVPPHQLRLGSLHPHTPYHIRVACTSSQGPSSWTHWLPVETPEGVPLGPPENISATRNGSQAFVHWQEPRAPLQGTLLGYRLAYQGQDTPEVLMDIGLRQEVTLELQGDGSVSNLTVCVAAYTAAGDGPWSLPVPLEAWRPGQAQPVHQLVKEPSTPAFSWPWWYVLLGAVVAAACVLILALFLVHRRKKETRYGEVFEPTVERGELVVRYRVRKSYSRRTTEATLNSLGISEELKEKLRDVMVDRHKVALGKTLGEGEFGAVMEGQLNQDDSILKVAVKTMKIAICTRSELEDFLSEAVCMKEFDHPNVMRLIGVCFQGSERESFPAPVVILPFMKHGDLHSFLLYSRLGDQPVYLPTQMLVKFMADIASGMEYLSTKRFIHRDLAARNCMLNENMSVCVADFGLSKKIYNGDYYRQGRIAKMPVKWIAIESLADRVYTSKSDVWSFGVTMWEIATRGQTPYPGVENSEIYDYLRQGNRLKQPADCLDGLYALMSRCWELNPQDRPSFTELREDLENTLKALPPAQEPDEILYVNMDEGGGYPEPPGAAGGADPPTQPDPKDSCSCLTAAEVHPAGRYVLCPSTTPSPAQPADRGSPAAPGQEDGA
Assay: Phospho-Akt In-Cell Western Assay (inhibition of Axl activity after Axl-antibody cross-linking)
Type: cell-based
Settings: read-out: IC50
Summary of the method: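 HeLa cells on poly-L-lysine, starved 24 h in 0.5% FCS DMEM with Axl/Fc 500 ng/mL, pre-treated with compound 1 h at 37 °C, then stimulated 5 min by anti-Axl/anti-mouse antibody cross-linking. Fixed cells probed for phospho-Akt with HRP secondary and chemiluminescent detection.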

[1] = Hela cells, phospho-Akt chemiluminescence normalized to relative cell number, compounds of formula (Ib), Table 2
[2] = inhibition of Axl activity, Table 1, compounds of formula (Ia)

Row | Structure (SMILES) | IC50 [1] | IC50 [2]
1 | Cc1cc(Nc2nc(N)nn2-c2cc3c(nn2)-c2ccccc2CCC3)cnc1N1CCC(N2CCCC2)CC1 [Compound 173, 1-(6,7-dihydro-5H-benzo[6,7]cyclohepta[1,2-c]pyridazin-3-yl)-N^5-(6-(4-(pyrrolidin-1-yl)piperidin-1-yl)-5-methylpyridin-3-yl)-1H-1,2,4-triazole-3,5-diamine] | 1000 to 10000 nM | –
2 | Nc1nc(Nc2ccc(N3CCC(N4CCCC4)C3)c(F)c2)n(-c2cc3c(nn2)-c2ccccc2CCC3)n1 (stereo not shown) [Compound 174, 1-(6,7-dihydro-5H-benzo[6,7]cyclohepta[1,2-c]pyridazin-3-yl)-N^5-(3-fluoro-(4-(3-pyrrolidin-1-yl)pyrrolidin-1-yl)phenyl)-1H-1,2,4-triazole-3,5-diamine] | 1000 to 10000 nM | –
3 | CN1CCN(C2CCN(c3ccc(Nc4nc(N)n(-c5cc6c(nn5)-c5ccccc5OC65CCCC5)n4)cc3F)CC2)CC1 [Compound 175, 1-(spiro[chromeno[4,3-c]pyridazine-5,1′-cyclopentane]-3-yl)-N^3-(3-fluoro-4-(4-(4-methylpiperazin-1-yl)piperidin-1-yl)phenyl)-1H-1,2,4-triazole-3,5-diamine] | – | 10000 to 20000 nM
4 | Nc1nc(Nc2ccc(N3CCC(N4CCCC4)CC3)c(F)c2)nn1-c1cc2c(nn1)-c1ccccc1OC21CCCC1 [Compound 176, 1-(spiro[chromeno[4,3-c]pyridazine-5,1′-cyclopentane]-3-yl)-N^3-(3-fluoro-4-(4-(pyrrolidin-1-yl)piperidin-1-yl)phenyl)-1H-1,2,4-triazole-3,5-diamine] | – | 1000 to 10000 nM
5 | Nc1nc(Nc2ccc(N3CCN(CC4CC4)CC3)nc2)nn1-c1cc2c(nn1)-c1ccccc1CCC2 [Compound 187, 1-(6,7-dihydro-5H-benzo[6,7]cyclohepta[1,2-c]pyridazin-3-yl)-N^3-(2-(4-cyclopropylmethylpiperazin-1-yl)pyridine-5-yl)-1H-1,2,4-triazole-3,5-diamine] | – | 1000 to 10000 nM
6 | Nc1nc(Nc2ccc(N3CCN(C4CCCCC4)CC3)c(F)c2)nn1-c1cc(-c2ccccc2)c2c(n1)-c1ccccc1CCC2 [Compound 192, 1-(4-phenyl-6,7-dihydro-5H-benzo[6,7]cyclohepta[1,2-b]pyridin-2-yl)-N^3-(3-fluoro-4-(4-cyclohexylpiperazin-1-yl)phenyl)-1H-1,2,4-triazole-3,5-diamine] | – | 10000 to 20000 nM
7 | CN1CCN(c2ccc(Nc3nc(N)n(-c4cc(-c5ccccc5)c5c(n4)-c4ccccc4CCC5)n3)cc2)CC1 [Compound 193, 1-(4-phenyl-6,7-dihydro-5H-benzo[6,7]cyclohepta[1,2-b]pyridin-2-yl)-N^3-(4-(4-methylpiperazin-1-yl)phenyl)-1H-1,2,4-triazole-3,5-diamine] | – | 1000 to 10000 nM
8 | Nc1nc(Nc2ccc3c(c2)CCC(N2CCC[C@H]2C(=O)O)CC3)nn1-c1cc2c(nn1)-c1ccccc1CCC2 (stereo partly drawn) [Compound 195, 1-(6,7-dihydro-5H-benzo[6,7]cyclohepta[1,2-c]pyridazin-3-yl)-N^3-((7-(2-(S)-carboxy)pyrrolidin-1-yl)-6,7,8,9-tetrahydro-5H-benzo[7]annulene-2-yl)-1H-1,2,4-triazole-3,5-diamine] | – | 1000 to 10000 nM
9 | Nc1nc(Nc2ccc(C=CCN3CCC(N4CCCCC4)CC3)cc2)nn1-c1cc2c(nn1)-c1ccccc1CCC2 [Compound 197, 1-(6,7-dihydro-5H-benzo[6,7]cyclohepta[1,2-c]pyridazin-3-yl)-N^3-(4-(4-(piperidin-1-yl)piperidin-1-ylprop-1-enyl)phenyl)-1H-1,2,4-triazole-3,5-diamine] | – | 1000 to 10000 nM

More lines, now with the values ahead:

Row | IC50 [1] | IC50 [2] | Structure (SMILES)
10 | – | < 1000 nM | Nc1nc(Nc2ccc(N3CCC(N4CCCC4)CC3)c(F)c2)nn1-c1cc2c(nn1)-c1ccccc1CCC2 [Compound 177, 1-(6,7-dihydro-5H-benzo[6,7]cyclohepta[1,2-c]pyridazin-3-yl)-N^3-(3-fluoro-4-(4-pyrrolidin-1-ylpiperidin-1-yl)phenyl)-1H-1,2,4-triazole-3,5-diamine]
11 | – | < 1000 nM | Nc1nc(Nc2ccc(N3CCC(N4CCCC4)CC3)c(F)c2)nn1-c1cc2c(nn1)CCCc1ccccc1-2 [Compound 178, 1-(6,7-dihydro-5H-benzo[6,7]cyclohepta[4,5-c]pyridazin-2-yl)-N^3-(3-fluoro-4-(4-pyrrolidin-1-ylpiperidin-1-yl)phenyl)-1H-1,2,4-triazole-3,5-diamine]
12 | – | < 1000 nM | CN1CCN(C2CCN(c3ccc(Nc4nc(N)n(-c5cc6c(nn5)-c5ccccc5CCC6)n4)cc3F)CC2)CC1 [Compound 179, 1-(6,7-dihydro-5H-benzo[6,7]cyclohepta[1,2-c]pyridazin-3-yl)-N^3-(3-fluoro-4-(4-(4-methylpiperazin-1-yl)piperidin-1-yl)phenyl)-1H-1,2,4-triazole-3,5-diamine]
13 | – | < 1000 nM | CN(C)[C@@H]1CCN(c2ccc(Nc3nc(N)n(-c4cc5c(nn4)-c4ccccc4CCC5)n3)cc2F)C1 [Compound 180, 1-(6,7-dihydro-5H-benzo[6,7]cyclohepta[1,2-c]pyridazin-3-yl)-N^3-(3-fluoro-4-(3-(3R)-dimethylaminopyrrolidin-1-yl)phenyl)-1H-1,2,4-triazole-3,5-diamine]
14 | – | < 1000 nM | CCN(CC)C1CCc2ccc(Nc3nc(N)n(-c4cc5c(nn4)-c4ccccc4CCC5)n3)cc2CC1 (stereo not shown) [Compound 185, 1-(6,7-dihydro-5H-benzo[6,7]cyclohepta[1,2-c]pyridazin-3-yl)-N^3-(7-diethylamino-6,7,8,9-tetrahydro-5H-benzo[7]annulene-2-yl)-1H-1,2,4-triazole-3,5-diamine]
15 | – | < 1000 nM | Nc1nc(Nc2ccc3c(c2)CCC(NC2CCCC2)CC3)nn1-c1cc2c(nn1)-c1ccccc1CCC2 (stereo not shown) [Compound 186, 1-(6,7-dihydro-5H-benzo[6,7]cyclohepta[1,2-c]pyridazin-3-yl)-N^3-(7-cyclopentylamino-6,7,8,9-tetrahydro-5H-benzo[7]annulene-2-yl)-1H-1,2,4-triazole-3,5-diamine]
16 | – | < 1000 nM | Nc1nc(Nc2cnc3c(c2)CC(N2CCCC2)CC3)nn1-c1cc2c(nn1)-c1ccccc1CCC2 (stereo not shown) [Compound 189, 1-(6,7-dihydro-5H-benzo[6,7]cyclohepta[1,2-c]pyridazin-3-yl)-N^3-(6-(pyrrolidin-1-yl)-5,6,7,8-tetrahydroquinolin-3-yl)-1H-1,2,4-triazole-3,5-diamine]
17 | – | < 1000 nM | Nc1nc(Nc2cnc3c(c2)CN(C2CCCC2)CC3)nn1-c1cc2c(nn1)-c1ccccc1CCC2 [Compound 190, 1-(6,7-dihydro-5H-benzo[6,7]cyclohepta[1,2-c]pyridazin-3-yl)-N^3-(6-cyclopentyl-5,6,7,8-tetrahydro-1,6-naphthyridine-3-yl)-1H-1,2,4-triazole-3,5-diamine]
18 | – | < 1000 nM | Nc1nc(Nc2cnc3c(c2)CC[C@H](N2CCCC2)CC3)nn1-c1cc2c(nn1)-c1ccccc1CCC2 [Compound 191, 1-(6,7-dihydro-5H-benzo[6,7]cyclohepta[1,2-c]pyridazin-3-yl)-N^3-((S)-7-(pyrrolidin-1-yl)-6,7,8,9-tetrahydro-5H-cyclohepta[b]pyridine-3-yl)-1H-1,2,4-triazole-3,5-diamine]
19 | – | < 1000 nM | COC(=O)[C@@H]1CCCN1C1CCc2ccc(Nc3nc(N)n(-c4cc5c(nn4)-c4ccccc4CCC5)n3)cc2CC1 (stereo partly drawn) [Compound 194, 1-(6,7-dihydro-5H-benzo[6,7]cyclohepta[1,2-c]pyridazin-3-yl)-N^3-((7-(2-(S)-methyloxycarbonyl)pyrrolidin-1-yl)-6,7,8,9-tetrahydro-5H-benzo[7]annulene-2-yl)-1H-1,2,4-triazole-3,5-diamine]
20 | – | < 1000 nM | CN1CCN(C2CCN(CC=Cc3ccc(Nc4nc(N)n(-c5cc6c(nn5)-c5ccccc5CCC6)n4)cc3)CC2)CC1 [Compound 196, 1-(6,7-dihydro-5H-benzo[6,7]cyclohepta[1,2-c]pyridazin-3-yl)-N^3-(4-(4-(4-methylpiperazin-1-yl)piperidin-1-ylprop-1-enyl)phenyl)-1H-1,2,4-triazole-3,5-diamine]
21 | – | < 1000 nM | Nc1nc(Nc2ccc(C=CCN3CCCCC3)cc2)nn1-c1cc2c(nn1)-c1ccccc1CCC2 [Compound 198, 1-(6,7-dihydro-5H-benzo[6,7]cyclohepta[1,2-c]pyridazin-3-yl)-N^3-(4-(piperidin-1-ylprop-1-enyl)phenyl)-1H-1,2,4-triazole-3,5-diamine]
22 | – | < 1000 nM | Nc1nc(Nc2ccc(C=CCN3CCCC3)cc2)nn1-c1cc2c(nn1)-c1ccccc1CCC2 [Compound 199, 1-(6,7-dihydro-5H-benzo[6,7]cyclohepta[1,2-c]pyridazin-3-yl)-N^3-(4-(pyrrolidin-1-ylprop-1-enyl)phenyl)-1H-1,2,4-triazole-3,5-diamine]
